Structures are written as SMILES.

One experiment deals with T1, human muscarinic M3 receptor (Homo sapiens, UniProt P20309).
T1 construct: expressed in transfected cells
T1 sequence (P20309 whole entry): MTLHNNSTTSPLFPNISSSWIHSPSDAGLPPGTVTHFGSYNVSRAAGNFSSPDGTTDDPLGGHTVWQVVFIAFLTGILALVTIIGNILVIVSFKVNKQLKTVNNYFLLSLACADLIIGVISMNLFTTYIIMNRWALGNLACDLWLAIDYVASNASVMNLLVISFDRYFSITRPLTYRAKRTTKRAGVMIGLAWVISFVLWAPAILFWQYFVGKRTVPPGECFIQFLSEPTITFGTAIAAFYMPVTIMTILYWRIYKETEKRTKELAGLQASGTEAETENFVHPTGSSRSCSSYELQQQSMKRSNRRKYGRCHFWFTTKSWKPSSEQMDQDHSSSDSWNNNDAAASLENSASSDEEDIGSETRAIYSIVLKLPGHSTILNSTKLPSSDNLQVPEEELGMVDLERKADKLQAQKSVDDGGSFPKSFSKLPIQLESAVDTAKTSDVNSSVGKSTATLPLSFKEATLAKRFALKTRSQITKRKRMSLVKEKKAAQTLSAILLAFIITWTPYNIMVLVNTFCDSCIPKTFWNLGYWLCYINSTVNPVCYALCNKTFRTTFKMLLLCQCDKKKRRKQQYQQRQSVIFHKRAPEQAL
Put plainly: hM3 β-Lac potency assay (cell based β-lactamase). Particulars: CHO cells expressing human M3 receptor, NFAT β-lactamase reporter; […]; IC50 converted to Ki by Cheng-Prusoff; read-out: Cell based β-lactamase M3 Ki. On the procedure:
M3 potency was determined in CHO-K1 cells transfected with the NFAT-Betalactamase gene. CHO (Chinese Hamster Ovary) cells recombinantly expressing the human muscarinic M3 receptor were transfected with the NFAT_β-Lac_Zeo plasmid.
The cells were re-suspended at 2×10^5 cells/ml in growth medium (composition as described above). […] Inhibition curves were plotted and IC50 values generated using a 4-parameter sigmoid fit and converted to Ki values using the Cheng-Prusoff correction and the KD value for carbamyl choline in the assay.
For `CC(C)(CCC(C#N)(c1ccccc1)c1ccccc1)N1CC(OCc2ccc(O)cc2)C1` [Example 151, 5-{3-[(4-Hydroxybenzyl)oxy]azetidin-1-yl}-5-methyl-2,2-diphenylhexanenitrile], the Ki turned out to be 0.191 nM.

As to `CC(C)(CCC(C#N)(c1ccccc1)c1ccccc1)N1CCC(OCc2cccc(O)c2)CC1` [Example 88, 5-{4-[(3-Hydroxybenzyl)oxy]piperidin-1-yl}-5-methyl-2,2-diphenylhexanenitrile], the Ki stood at 71.9 nM.

Regarding `CC(C)(CCC(C#N)(c1ccccc1)c1ccccc1)N1CC[C@H](Oc2ccccc2)C1` [Example 1, 5-Methyl-5-[(3S)-3-phenoxypyrrolidin-1-yl]-2,2-diphenylhexanenitrile], the Ki came out at 8.34 nM.

The experiment is the same for the next values; noted with them: CHO cells expressing human M3 receptor, NFAT β-lactamase reporter; inhibition of 80 nM carbamyl choline signal, 4 h; IC50 converted to Ki by Cheng-Prusoff; read-out: Cell based β-lactamase M3 Ki.
`CC(C)(CCC(C(N)=O)(c1ccccc1)c1ccccc1)N1CC(Oc2cc(O)cc(Cl)c2)C1` [Example 124, 5-[3-(3-Chloro-5-hydroxy-phenoxy)-azetidin-1-yl]-5-methyl-2,2-diphenylhexanamide]: the Ki was determined as 0.223 nM.

With `CC(C)(CCC(C#N)(c1ccccc1)c1ccccc1)N1CC[C@H](OCc2cccc(-c3ccc(O)cc3)c2)C1` [Example 62, 5-[(3S)-3-[(4′-Hydroxybiphenyl-3-yl)methoxy]-pyrrolidin-1-yl]5-methyl-2,2-diphenylhexanenitrile], the Ki was 57.4 nM.

As for `CC(C)(CCC(C(N)=O)(c1ccccc1)c1ccccc1)N1CC[C@H](OCc2cccc(-c3ccccc3O)c2)C1` [Example 64, 5-{(3S)-3-[(2′-Hydroxybiphenyl-3-yl)methoxy]pyrrolidin-1-yl}-5-methyl-2,2-diphenylhexanamide], the Ki was found to be 65.6 nM.

With `CC(C)(CCC(C(N)=O)(c1ccccc1)c1ccccc1)N1CC[C@@H](Oc2cc(O)cc(F)c2)C1` [Example 74, 5-[(3R)-3-(3-Fluoro-5-hydroxy-phenoxy)-pyrrolidin-1-yl]-5-methyl-2,2-diphenyl-hexanamide], the Ki is less than 0.56 nM.

As for `CC(C)(CCC(C(N)=O)(c1ccccc1)c1ccccc1)N1CCC(Oc2ccccc2)CC1` [Example 90, 5-Methyl-5-(4-Phenoxypiperidin-1-yl)-2,2-diphenylhexanamide], the Ki worked out at 0.268 nM.

On to `COc1cccc(O[C@@H]2CCN(C(C)(C)CCC(C(N)=O)(c3ccccc3)c3ccccc3)C2)c1Cl` [Example 77, 5-[(3R)-3-(2-Chloro-3-methoxy-phenoxy)-pyrrolidin-1-yl]-5-methyl-2,2-diphenylhexanamide], for which the Ki was 4.96 nM.

For `CC(C)(CCC(C(N)=O)(c1ccccc1)c1ccccc1)N1CC[C@H](OCc2cccc(-c3ccc(O)cc3)c2)C1` [Example 63, 5-{(3S)-3-[(4′-Hydroxybiphenyl-3-yl)methoxy]pyrrolidin-1-yl}-5-methyl-2,2-diphenylhexanamide], the Ki worked out at 28.7 nM.

`CC(C)(CCC(C(N)=O)(c1ccccc1)c1ccccc1)N1CC[C@H](Oc2cccc(Br)c2)C1` [Example 17, 5-[(3S)-3-(3-Bromophenoxy)pyrrolidin-1-yl]-5-methyl-2,2-diphenylhexanamide]: the Ki was determined as 5.11 nM.

Take `CC(C)(CCC(C(N)=O)(c1ccccc1)c1ccccc1)N1CC[C@@H](Oc2ccc3ncoc3c2)C1` [Example 15, 5-[(3R)-3-(1,3-Benzoxazol-6-yloxy)pyrrolidin-1-yl]5-methyl-2,2-diphenylhexanamide]: the Ki is 4.25 nM.

On to `CC(C)(CCC(C(N)=O)(c1ccccc1)c1ccccc1)N1CC(Oc2ccc(F)cc2O)C1` [Example 127], for which the Ki was found to be 110 nM.

With `CC(C)(CCC(C(N)=O)(c1ccccc1)c1ccccc1)N1CC[C@H](Oc2cccc(-c3cccc(O)c3)c2)C1` [Example 19, 5-{(3S)-3-[(3′-Hydroxybiphenyl-3-yl)oxy]pyrrolidin-1-yl}-5-methyl-2,2-diphenylhexanamide], the Ki was found to be 5.56 nM.

`CC(C)(CCC(C(N)=O)(c1ccccc1)c1ccccc1)N1CCC(OCc2cccc(Br)c2)CC1` [Example 91, 5-{4-[(3-Bromobenzyl)oxy]piperidin-1-yl}-5-methyl-2,2-diphenylhexanamide]: the Ki was determined as 22.6 nM.

Take `CC(C)(CCC(C(N)=O)(c1ccccc1)c1ccccc1)N1CC[C@@H](OCc2ccc(F)c(O)c2)C1` [Example 67, 5-[(3R)-3-(4-Fluoro-3-hydroxy-benzyloxy)-pyrrolidin-1-yl]-5-methyl-2,2-diphenylhexanamide]: the Ki stood at 10.7 nM.

As to `CC(C)(CCC(C(N)=O)(c1ccccc1)c1ccccc1)N1CC(OCc2ccc(Cl)c(O)c2)C1` [Example 138, 5-[3-(4-Chloro-3-hydroxy-benzyloxy)-azetidin-1-yl]-5-methyl-2,2-diphenyl-hexanoic acid amide], the inhibition constant (Ki) was 0.468 nM.

As to `CC(C)(CCC(C(N)=O)(c1ccccc1)c1ccccc1)N1CC[C@@H](OCc2cccc(O)c2)C1` [Example 54, 5-[(3R)-3-(3-Hydroxy-benzyloxy)-pyrrolidin-1-yl]-5-methyl-2,2-diphenyl-hexanoic acid amide], the Ki came out at 3.62 nM.

Consider `CC(C)(CCC(C#N)(c1ccccc1)c1ccccc1)N1CC[C@H](OCc2cccc(-c3ccccc3O)c2)C1` [Example 58, 5-{(3S)-3-[(2′-Hydroxybiphenyl-3-yl)methoxy]pyrrolidin-1-yl}-5-methyl-2,2-diphenylhexanenitrile], for which the Ki is 1580 nM.

On to `Cc1cc(O)c(C)c(O[C@H]2CCN(C(C)(C)CCC(C(N)=O)(c3ccccc3)c3ccccc3)C2)c1` [Example 44, 5-[(3S)-3-(3-Hydroxy-2,5-dimethyl-phenoxy)-pyrrolidin-1-yl]-5-methyl-2,2-diphenyl-hexanoic acid amide], for which the Ki was 32.2 nM.

For the molecule `CC(C)(CCC(C(N)=O)(c1ccccc1)c1ccccc1)N1CC[C@H](Oc2cccc(O)c2Cl)C1` [Example 38, 5-[(3S)-3-(2-Chloro-3-Hydroxy-phenoxy)-pyrrolidin-1-yl]-5-methyl-2,2-diphenyl-hexanoic acid amide], the Ki is 0.996 nM.

Take `COc1cccc(O[C@H]2CCN(C(C)(C)CCC(C(N)=O)(c3ccccc3)c3ccccc3)C2)c1` [Example 6, 5-[(3S)-3-(3-methoxyphenoxy)pyrrolidin-1-yl]-5-methyl-2,2-diphenylhexanamide]: the Ki worked out at 1.02 nM.

Take `CC(C)(CCC(C(N)=O)(c1ccccc1)c1ccccc1)N1CCC(OCc2ccccc2)CC1` [Example 92, 5-[4-(Benzyloxy)piperidin-1-yl]-5-methyl-2,2-diphenylhexanamide]: the Ki amounted to 2.13 nM.

Consider `CC(C)(CCC(C(N)=O)(c1ccccc1)c1ccccc1)N1CC[C@H](Oc2ccc3ccc(O)cc3c2)C1` [Example 70, 5-[(3S)-3-[(7-Hydroxy-2-naphthyl)oxy]pyrrolidin-1-yl]-5-methyl-2,2-diphenylhexanamide], for which the Ki is 19.1 nM.

For the molecule `CC(C)(CCC(C(N)=O)(c1ccccc1)c1ccccc1)N1CC[C@@H](OCc2ccccc2)C1` [Example 9, 5-[(3R)-3-(Benzyloxy)pyrrolidin-1-yl]-5-methyl-2,2-diphenylhexanamide], the Ki was found to be 1.87 nM.

For the molecule `CC(C)(CCC(C(N)=O)(c1ccccc1)c1ccccc1)N1CC(Oc2ccccc2O)C1` [Example 109, 5-[3-(2-Hydroxyphenoxy)azetidin-1-yl]-5-methyl-2,2-diphenylhexanamide], the Ki stood at 10.8 nM.

`CC(C)(CCC(C#N)(c1ccccc1)c1ccccc1)N1CC(Oc2cccc(O)c2)C1` [Example 150, 5-[3-(3-Hydroxy-phenoxy)-azetidin-1-yl]-5-methyl-2,2-diphenyl-hexanenitrile]: the Ki came to 1.05 nM.

On to `CC(C)(CCC(C(N)=O)(c1ccccc1)c1ccccc1)N1CCC(Oc2cc(F)c(C#N)cc2F)CC1` [Example 94, 5-[4-(4-Cyano-2,5-difluoro-phenoxy)-piperidin-1-yl]-5-methyl-2,2-diphenylhexanoic acid amide], for which the Ki was determined as 12.4 nM.

Regarding `NC(=O)C(CCC1(N2CC(Oc3ccc(O)c(F)c3)C2)CCCC1)(c1ccccc1)c1ccccc1` [Example 145, 4-{1-[3-(3-Fluoro-4-hydroxy-phenoxy)-azetidin-1-yl]-cyclopentyl}-2,2-diphenyl-butyramide], the Ki was determined as 10.8 nM.

`Cc1c(O)cccc1O[C@H]1CCN(C(C)(C)CCC(C(N)=O)(c2ccccc2)c2ccccc2)C1` [Example 30, 5-[(3S)-3-(3-Hydroxy-2-methyl-phenoxy)-pyrrolidin-1-yl]-5-methyl-2,2-diphenyl-hexanoic acid amide]: the Ki was determined as 0.333 nM.

On to `CC(C)(CCC(C(N)=O)(c1ccccc1)c1ccccc1)N1CC[C@H](Oc2ccc(Cl)cc2)C1` [Example 16, 5-[(3S)-3-(4-Chlorophenoxy)pyrrolidin-1-yl]-5-methyl-2,2-diphenylhexanamide], for which the Ki turned out to be 1.85 nM.

Turning to `CC(C)(CCC(C(N)=O)(c1ccccc1)c1ccccc1)N1CC[C@@H](Oc2ccccc2)C1` [Example 4, 5-Methyl-5-[(3R)-3-phenoxypyrrolidin-1-yl]-2,2-diphenylhexanamide], the Ki stood at 1.55 nM.

On to `COc1cccc(CO[C@H]2CCN(C(C)(C)CCC(C(N)=O)(c3ccccc3)c3ccccc3)C2)c1` [Example 84, 5-[(3S)-3-(3-methoxy-benzyloxy)pyrrolidin-1-yl]-5-methyl-2,2-diphenylhexanamide], for which the Ki amounted to 6.97 nM.

For `CC(C)(CCC(C(N)=O)(c1ccccc1)c1ccccc1)N1CC[C@H](Oc2cccc(O)c2F)C1` [Example 53, 5-[(3S)-3-(2-Fluoro-3-Hydroxy-phenoxy)-pyrrolidin-1-yl]-5-methyl-2,2-diphenyl-hexanoic acid amide], the Ki is 0.334 nM.

Regarding `CC(C)(CCC(C(N)=O)(c1ccccc1)c1ccccc1)N1CC[C@@H](OCc2cccc(O)c2Cl)C1` [Example 85, 5-[(3R)-3-(2-Chloro-3-hydroxy-benzyloxy)-pyrrolidin-1-yl]-5-methyl-2,2-diphenylhexanamide], the Ki is 3.19 nM.

As usually defined, the Ki is a dissociation constant, usually derived from enzyme kinetics or from competition with a known ligand.

For the origin of these results see US8268881B2, “Carboxamide derivatives as muscarinic receptor antagonists” (Pfizer Limited, priority 2005, dated 2012).
